Test results as given in patent US12410185B2, “Compounds targeting mutant calreticulin” (MYELOPRO DIAGNOSTICS AND RESEARCH GmbH, priority 2018, dated 2025).
Read-outs that look alike come from different tables or passages of the source.

Assays:
CALR mutant cell lines = assay: cells; settings: for IC50: read-out: IC50 in mutant cell lines
Description: (§1) Ba/F3 and UT-7-TPO were plated 5.000 cells/well and 16.000 cells/well into 96-well plates with the desirable concentrations of compounds or cytokines added to a total volume of 100 ul. 72 hours later, the CellTiter-Glo luminescent Cell Viability Assay (Promega) was used to determine the cell viability. The luminescent signal was detected by a VICTOR Multilabel Plate Reader (PerkinElmer). Dose response data was analyzed by Graphpad Prism 7.0.
(§2) To further explore the chemical space of the compound, a few hematoxylin analogues were also tested (FIGS. 15 to 17). […] The compounds Protosappanin B (A-4) and RJ002 (B-2) were also tested. […] As a comparison, the clinically used chemotherapeutic drugs hydroxyurea and ruxolitinib were also tested in the cell models.

CALR wild-type cell line = assay: 72 h dose response of hematoxylin, analogues and control compounds; format: cell-based; settings: 72 h assay
Description: as §1, §2

[1] = solubility in 10 mM stock solution; format: physicochemical; settings: compounds dissolved in DMSO
Description: All tested compounds were dissolved in DMSO.
(§3) These included HEM8 (B-18), HEM11 (B-19), HEM30 (B-20), HEM36 (B-26), HEM44 (B-34) and HEM46 (B-36) which were used at 1/10 of the concentration (1 uM for Ba/F3 and 3 uM for UT-7).

Ba/F3 cells = assay: cytotoxicity screen of further hematoxylin derivatives; format: cell-based, mouse; settings: 10 uM (1 uM for compounds insoluble in 10 mM stock)
Description: (§4) Cytotoxicity screens were performed essentially as described in Example 1.
as §3

UT-7 cells = assay: as above; format: cell-based; settings: 30 uM (3 uM for compounds insoluble in 10 mM stock)
Description: as §4, §3

[2] = system: WT cell line (UT-7 cells); assay: IC50 of further hematoxylin derivatives (Table 3); format: cell-based; settings: Homo sapiens
Description: as §4

[3] = system: mutant cell line (UT-7 cells); assay: IC50 of further hematoxylin derivatives (Table 3); format: cell-based; settings: Homo sapiens
Description: as §4

[4] = UT7, UT-7 cells, read-out: IC50 WT cell line
[5] = UT7, UT-7 cells, read-out: IC50 mutant cell line

Q: For Oc1ccc2c(c1)OC[C@]1(O)Cc3cc(O)c(O)cc3[C@H]21 [Brazilin (A-2), Brazilin], which “cytotoxic selectivity for mutant vs wild-type cell lines” value (from here on “cytotoxic selectivity for mutant”) (CALR mutant cell lines) is on record?
A: The value was “comparable cytotoxic selectivity”.

Q: And the IC50 (CALR mutant cell lines; 72 h)?
A: The IC50 was 1.9 µM.

Q: What about the IC50 (CALR wild-type cell line; read-out: IC50 in wild-type cell line) of the same compound?
A: The IC50 was 6.2 µM.

Q: Which “solubility in a 10 mM stock solution” value [1] does the source give for O=C(Oc1cc2c(cc1OC(=O)c1cccc(N3C(=O)/C(=C/c4cccc(F)c4)SC3=S)c1)[C@@H]1c3ccc(OC(=O)c4cccc(N5C(=O)/C(=C/c6cccc(F)c6)SC5=S)c4)c(OC(=O)c4cccc(N5C(=O)/C(=C/c6cccc(F)c6)SC5=S)c4)c3OC[C@]1(O)C2)c1cccc(N2C(=O)/C(=C/c3cccc(F)c3)SC2=S)c1 [HEM8 (B-18)] here?
A: Its value is “insoluble in a 10 mM stock solution”.

Q: With O=C(CCN1C(=O)/C(=C/c2ccc(Cl)cc2)SC1=S)Oc1cc2c(cc1OC(=O)CCN1C(=O)/C(=C/c3ccc(Cl)cc3)SC1=S)[C@@H]1c3ccc(OC(=O)CCN4C(=O)/C(=C/c5ccc(Cl)cc5)SC4=S)c(OC(=O)CCN4C(=O)/C(=C/c5ccc(Cl)cc5)SC4=S)c3OC[C@]1(O)C2 [HEM11 (B-19)] as the compound, how does the “solubility in a 10 mM stock solution” value [1] read?
A: The value was “insoluble in a 10 mM stock solution”.

Q: What does the source list for O=C(Oc1cc2c(cc1OC(=O)c1ccc(/C=C3\SC(=S)N(c4ccc(F)cc4)C3=O)cc1)[C@@H]1c3ccc(OC(=O)c4ccc(/C=C5\SC(=S)N(c6ccc(F)cc6)C5=O)cc4)c(OC(=O)c4ccc(/C=C5\SC(=S)N(c6ccc(F)cc6)C5=O)cc4)c3OC[C@]1(O)C2)c1ccc(/C=C2\SC(=S)N(c3ccc(F)cc3)C2=O)cc1 [HEM30 (B-20)]?
A: selectivity and potency in cytotoxicity screen (Ba/F3 cells): Best results in terms of selectivity and potency; solubility in a 10 mM stock solution [1]: insoluble in a 10 mM stock solution

Q: With CN1C(=O)/C(=C/c2ccc(C(=O)Oc3cc4c(cc3OC(=O)c3ccc(/C=C5\SC(=S)N(C)C5=O)cc3)[C@@H]3c5ccc(OC(=O)c6ccc(/C=C7\SC(=S)N(C)C7=O)cc6)c(OC(=O)c6ccc(/C=C7\SC(=S)N(C)C7=O)cc6)c5OC[C@]3(O)C4)cc2)SC1=S [HEM32 (B-22)] as the compound, how does the “selectivity and potency in cytotoxicity screen” value (UT-7 cells) read?
A: Its value is “Best results in terms of selectivity and potency”.

Q: And the IC50 [2, 4]?
A: Its IC50 is 18.8 µM.

Q: What about the IC50 [3, 5] of the same compound?
A: Its IC50 is 16.1 µM.

Q: For O=C(Oc1cc2c(cc1OC(=O)c1ccc(Cl)cc1)[C@@H]1c3ccc(OC(=O)c4ccc(Cl)cc4)c(OC(=O)c4ccc(Cl)cc4)c3OC[C@]1(OC(=O)c1ccc(Cl)cc1)C2)c1ccc(Cl)cc1 [HEM36 (B-26)], which “solubility in a 10 mM stock solution” value [1] is on record?
A: Its value is “insoluble in a 10 mM stock solution”.

Q: Which results are given for CC(C)C(=O)Oc1cc2c(cc1OC(=O)C(C)C)[C@@H]1c3ccc(OC(=O)C(C)C)c(OC(=O)C(C)C)c3OC[C@]1(O)C2 [HEM40 (B-30)]?
A: selectivity and potency in cytotoxicity screen (UT-7 cells): Best results in terms of selectivity and potency; IC50 [2, 4]: 14.5 µM; IC50 [3, 5]: 12 µM

Q: Which results are given for CCC(=O)Oc1cc2c(cc1OC(=O)CC)[C@@H]1c3ccc(OC(=O)CC)c(OC(=O)CC)c3OC[C@]1(O)C2 [HEM42 (B-32)]?
A: selectivity and potency in cytotoxicity screen (UT-7 cells): Best results in terms of selectivity and potency; IC50 [2, 4]: 26.2 µM; IC50 [3, 5]: 20.8 µM

Q: Which “solubility in a 10 mM stock solution” value [1] does the source give for O=C(Oc1cc2c(cc1OC(=O)C(Cl)Cl)[C@@H]1c3ccc(OC(=O)C(Cl)Cl)c(OC(=O)C(Cl)Cl)c3OC[C@]1(O)C2)C(Cl)Cl [HEM44 (B-34)] here?
A: Its value is “insoluble in a 10 mM stock solution”.

Q: Which “solubility in a 10 mM stock solution” value [1] does the source give for CC(C)CC(=O)Oc1cc2c(cc1OC(=O)CC(C)C)[C@@H]1c3ccc(OC(=O)CC(C)C)c(OC(=O)CC(C)C)c3OC[C@]1(O)C2 [HEM46 (B-36)] here?
A: The value was “insoluble in a 10 mM stock solution”.

Q: What does the source list for CCCC(=O)Oc1cc2c(cc1OC(=O)CCC)[C@@H]1c3ccc(OC(=O)CCC)c(OC(=O)CCC)c3OC[C@]1(O)C2 [HEM47 (B-37)]?
A: selectivity and potency in cytotoxicity screen (UT-7 cells): Best results in terms of selectivity and potency; IC50 ([2]; UT7, read-out: IC50 WT cell line): 14.7 µM; IC50 ([3]; UT7, read-out: IC50 mutant cell line): 12.4 µM

Q: For CC(C)(C)C(=O)Oc1cc2c(cc1OC(=O)C(C)(C)C)[C@@H]1c3ccc(OC(=O)C(C)(C)C)c(OC(=O)C(C)(C)C)c3OC[C@]1(O)C2 [HEM48 (B-38)], which “selectivity and potency in cytotoxicity screen” value (Ba/F3 cells) is on record?
A: Its value is “Best results in terms of selectivity and potency”.

Q: With NC(=O)NO [Hydroxyurea, reference compound] as the compound, how does the “cytotoxic selectivity for mutant” value (CALR mutant cell lines) read?
A: Its value is “did not show any selective killing effect”.

Q: For CC(=O)Oc1cc2c(cc1OC(C)=O)[C@@H]1c3ccc(OC(C)=O)c(OC(C)=O)c3OC[C@]1(OC(C)=O)C2 [L-HEM1 (B-1)], which “cytotoxic selectivity for mutant” value (CALR mutant cell lines) is on record?
A: Its value is “compromise both potency and selectivity”.

Q: For COc1cc2c(cc1OC)C1c3ccc(OC)c(OC)c3OCC1(O)C2 (centres unmarked) [NSC7251 (A-5)], which “cytotoxic selectivity for mutant” value (CALR mutant cell lines) is on record?
A: The value was “compromise both potency and selectivity”.

Q: With N#CC[C@H](C1CCCC1)n1cc(-c2ncnc3[nH]ccc23)cn1 [ruxolitinib, Ruxolitinib, reference compound] as the compound, how does the “cytotoxic selectivity for mutant” value (CALR mutant cell lines) read?
A: The value was “mild selective effect”.

Q: And the IC50 (CALR mutant cell lines; 72 h)?
A: Its IC50 is 0.195 µM.

Q: And the “IC50 reduction in the mutant cell lines compared to wild-type cells” value (CALR mutant cell lines; 72 h assay)?
A: The value was “about 2 fold”.

Q: And the IC50 (CALR wild-type cell line; read-out: IC50 in wild-type cells)?
A: Its IC50 is 0.4 µM.

Q: For Hematein [Hematein (A-3)], which “cytotoxic selectivity for mutant” value (CALR mutant cell lines) is on record?
A: Its value is “retained the cytotoxic selectivity”.

Q: And the IC50 (CALR mutant cell lines; 72 h assay)?
A: The IC50 was 7.5 µM.
